In BindingDB's records for patent US12065407 (Plex Pharmaceuticals, 2024) one finds Ki data, which are given here for twelve compounds.

Experiment [1] deals with Peptidyl-prolyl cis-trans isomerase FKBP1A (Homo sapiens, UniProt P62942). Nature of the experiment: Ki Estimation.
For experiment [2], the target named is T1, Peptidyl-prolyl cis-trans isomerase FKBP4 (Homo sapiens, UniProt Q02790).
T1 sequence (Q02790 whole entry): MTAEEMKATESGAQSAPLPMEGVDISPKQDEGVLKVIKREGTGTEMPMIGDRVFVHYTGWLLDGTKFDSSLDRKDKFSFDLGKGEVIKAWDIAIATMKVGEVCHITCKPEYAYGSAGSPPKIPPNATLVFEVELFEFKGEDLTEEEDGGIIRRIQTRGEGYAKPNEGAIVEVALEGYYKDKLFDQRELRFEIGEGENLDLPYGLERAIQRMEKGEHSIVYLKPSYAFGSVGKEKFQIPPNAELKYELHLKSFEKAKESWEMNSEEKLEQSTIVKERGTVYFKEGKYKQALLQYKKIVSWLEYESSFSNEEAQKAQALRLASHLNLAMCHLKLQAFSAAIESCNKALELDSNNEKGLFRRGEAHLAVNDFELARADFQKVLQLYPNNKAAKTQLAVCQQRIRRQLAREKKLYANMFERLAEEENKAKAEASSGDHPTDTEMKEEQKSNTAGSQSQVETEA
Nature of the experiment: Ki Estimation.

Chain of Peptidyl-prolyl cis-trans isomerase FKBP1A (P62942 whole entry): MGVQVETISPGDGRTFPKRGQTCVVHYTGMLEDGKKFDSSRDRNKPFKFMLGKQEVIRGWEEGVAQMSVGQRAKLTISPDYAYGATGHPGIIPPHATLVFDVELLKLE

Usually Ki stands for the equilibrium dissociation constant of an inhibitor or competing ligand from its target. `Cn1c(/C=C/c2ccc(Cl)cc2)nc2ccccc21` [US12065407, ID CAP01509]: the Ki in experiment [1] and in experiment [2] was greater than 10 µM each time.

Consider `Fc1ccccc1Cn1c(/C=C/c2ccccc2)nc2ccccc21` [US12065407, ID CAP01547], for which the results for the Ki in experiment [1] and in experiment [2] were greater than 10 µM and greater than 15 µM, respectively.

As to `C(=C\c1nc2ccccc2n1Cc1ccccc1)/c1ccccc1` [US12065407, ID CAP01548], the Ki is greater than 15 µM in experiment [1] and greater than 20 µM in experiment [2].

On to `CCCn1c(/C=C/c2ccccc2)nc2ccccc21` [US12065407, ID CAP01549], for which the Ki was greater than 20 µM in experiment [1] and greater than 25 µM in experiment [2].

For `CCCCn1c(/C=C/c2ccccc2)nc2ccccc21` [US12065407, ID CAP01554], the Ki was greater than 10 µM in experiment [1] and greater than 15 µM in experiment [2].

Take `CC(C)Cn1c(/C=C/c2ccccc2)nc2ccccc21` [US12065407, ID CAP01555]: the Ki in experiment [1] was greater than 15 µM; in experiment [2] it was greater than 20 µM.

As for `O=C(N[C@@H](Cc1ccc(Cl)cc1)C(=O)NCCCc1ccccc1)C1C2CC3CC(C2)CC1C3` (stereo partly specified) [US12065407, ID CAP01685], the Ki in experiment [1] was 32.5 µM.

For the compound `O=C(N[C@H](Cc1ccc(Cl)cc1)C(=O)NCCCc1ccccc1)c1ccc2ccccc2c1` [US12065407, ID CAP01691], the Ki in experiment [1] was greater than 50 µM.

Take `O=C(N[C@@H](Cc1ccc(Cl)cc1)C(=O)NCCCc1ccccc1)c1ccc(F)cc1` [US12065407, ID CAP01719]: the Ki in experiment [1] and in experiment [2] was greater than 25 µM each time.

As to `O=C(N[C@@H](Cc1ccc(Cl)cc1)C(=O)NCCCc1ccccc1)c1nc2ccccc2[nH]1` [US12065407, ID CAP01721], in experiment [2], the Ki was greater than 50 µM.

On to `O=C(N[C@@H](Cc1ccc(F)cc1)C(=O)NCCCc1ccccc1)c1ccc2ccccc2c1` [US12065407, ID CAP01740], for which the Ki in experiment [1] and in experiment [2] was greater than 40 µM throughout.

As to `CCC(C)(C)C(=O)N[C@H](C(=O)OCCCc1cccnc1)C1CCCC1` [US12065407, ID Tbl1.1], the Ki in experiment [1] and in experiment [2] was greater than 25 µM each time.
